Assay results as given in patent US9173878B2, “Brain function improving agent” (Tohoku University, priority 2012, dated 2015).

Key:
[1] = system: olfactolectomy mouse (OBX mouse); assay: Y maze test in olfactolectomized (OBX) mouse; format: in vivo; settings: 1 mg/kg administered into the abdominal, 30 minutes before test
Protocol: (§1) A 10 weeks old DDY male mouse (Nippon SLC, Hamamatsu, Japan) was used in the experiment. The animal was bred in an animal experiment facility in the Pharmaceutical Research Department of the Tohoku University Graduate School under a certain condition (temperature 22±2° C., 12 h: 12 h light-dark cycle) by freely providing water and a feed. Note that the handling of animals and animal experiments in the present paper was performed with an approval of Tohoku University Experimental Animal Committee and under the Tohoku University Animal Experiment Guideline.
An olfactolectomy mouse (OBX mouse) was prepared using a DDY male mouse. The olfactolectomy operation was performed under the condition of anesthesia by pentobarbital sodium (50 mg/kg i.p.; Dainippon, Osaka, Japan). […]
Y maze test: A Y maze test was performed to assess the spontaneous action amount and the spatial activity memory of a mouse. The mouse was place at the end of one of the arms in the Y maze and allowed to freely explore the maze for 8 minutes, then the positions of the arms that the mouse travelled were recorded in the order of selection. The number of times that the mouse travelled to each arm in the time of measurement was counted as total arm entries. Further, the combinations of consecutively selecting 3 different arms were counted as No. of alternation. […]

[2] = system: olfactolectomy mouse (OBX mouse); assay: Novel object recognition test in olfactolectomized (OBX) mouse; format: in vivo; settings: 1 mg/kg administered into the abdominal, 30 minutes before test
Protocol: as §1
An olfactolectomy mouse (OBX mouse) was prepared using a DDY male mouse. The olfactolectomy operation was performed under the condition of anesthesia by pentobarbital sodium (50 mg/kg i.p.; Dainippon, Osaka, Japan). The mouse was fixed to a brain brace, and the skull bone above the olfactory bulb was drilled to open a hole of 1 mm diameter. […]
Novel object recognition test: The present test uses a mouse's characteristic of preferring novel objects, and the mouse was allowed to freely explore the device in which 2 objects are placed for 10 minutes (training session). […] The numbers of contacts for the 2 objects in the training session and the trial session were measured. The percentage (%) of the number of contacts of the novel object against the number of total contacts in the trial session was calculated as the Discrimination index.

CaMKII = CaMKII self-phosphorylation (activation) in cultured mouse cerebral cortex cell, immunoblot; format: cell-based; settings: 100 pM, 30 minutes of incubation
Protocol: The above frozen mouse brain slice segment (hippocampus CA1 region) is used for homogenization on ice by adding 150 μL homogenizing buffer (50 mM Tris-HCl pH 7.5, 0.5% Triton X-100, 4 mM EGTA, 0.5 M NaCl, 10 mM EDTA, 1 mM Na3VO4, 30 mM sodium pyrophosphate, 50 mM NaF, 1 mM DTT, 100 nM calyculin A, 50 μg/mL leupeptin, 25 μg/mL pepstatin A, 50 μg/mL trypsin inhibitor) per sample. Then, centrifugation was performed using a refrigerated centrifuge (14,000×g, 10 minutes, 4° C.), after which 100 μL of supernatant was collected and 20 μL of 6× Laemmli buffer was added to the supernatant to be boiled at 100° C. for 3 minutes, to form an immunoblotting sample. The protein concentration was measured by the Bradford method using a part of the supernatant. Reagants containing the same amount of protein were added to 10% SDS-polyacrylamido electrophoresis gel (SDS-PAGE gel), and SDS-PAGE was performed at 80 mA per 1 sheet of gel for 180 minutes. After separation by electrophoresis, transcription to a PVDF membrane was performed at 70 V for 120 minutes. […] After washing with a TTBS solution, ECL detection system (GE healthcare) was used to induce luminescence of HRP that labels the second antibody, and the X-ray film (Fuji Medical X-ray Film, Fuji Film) was sensitized to detect the band. An NIH image analysis software was used for a quantification analysis of the immunoreaction product.
The dispersion cultivation of a mouse cerebral cortex cell was performed by a previously reported method (Fukunaga et al., J. Biol. Chem. 267, 22527-22533, 1992). […] The frozen cerebral cortex cells were subjected to quantification analysis of the activation state (self-phosphorylation reaction) of CaMKII by the immunoblotting method after homogenization, similarly to the method in Test Example 2.

CCOC(=O)C1=C(N2CCCCC2)C2(CC1=O)C(=O)N=C1C(C)=CC=CN12 (stereo not drawn) [SAK3]
improvement of cognitive dysfunction by olfactolectomy (Y maze test) [1]: almost completely improved | improvement of cognitive dysfunction by olfactolectomy (novel object recognition test) [2]: almost completely improved | phosphorylated CaMKII / activation of CaMKII (CaMKII): increased phosphorylated CaMKII
